Results as given in PMC6037002, “Drug targeting to decrease cardiotoxicity – determination of the cytotoxic effect of GnRH-based conjugates containing doxorubicin, daunorubicin and methotrexate on human cardiomyocytes and endothelial cells” (Beilstein Journal of Organic Chemistry, 2018).
Where two headings read alike, the source gives them in different places.

Key:
[1] = system: human umbilical vein endothelial cells (HUVEC); test: Impedimetric measurement (xCELLigence SP), delta slope, HUVEC; conditions: for delta slope (DS), short-term / delta slope (DS), long-term: HUVEC, three parallels; for delta slope (DS), short-term: 0–2 h; for delta slope (DS), long-term: 0–72 h; for cytotoxic effect on HUVEC, result in words: long-term (0–72 h), 10^−8–10^−6 mol/L, impedimetry, one-way ANOVA
Source text: (§1) The main objective of the study reported here was to evaluate the in vitro cardiotoxic effects (as undesired side effects) of […] GnRH-III-based conjugates containing doxorubicin, daunorubicin and methotrexate on two essential target cells of cardiovascular diseases: vascular endothelial cells and cardiomyocytes. The rate of cytotoxicity (antitumor effect) vs cardiotoxicity (toxic effects on cardiomyocytes and vascular endothelium) is an important factor for efficient drug development for targeted tumor therapy with minimized side effects. The technique used in this work – impedimetry – is a dedicated one for real-time monitoring of cells to distinguish short-term (0–2 hours) and long-term (0–72 hours) effects elicited by the drug or carrier–drug conjugates. The basic theory of impedimetry is that proliferation/viability of cells is well detectable by monitoring of the electric impedance (Z) in an AC environment, due to the electric insulator character of intact surface membranes composed of the phospholipid bilayer. […] While cell physiological responses of short-term exposures result in characteristic changes of cell morphology (e.g., spreading), long-term effects characteristically influence in particular the proliferation of cells, and therefore the cytotoxic effects. The presented dimensionless values of delta slope (DS) measure the difference between the slope of the curve corresponding to the treatment and that of the control curve in impedimetric recordings, the negative signs refer to the relative values to the identical control.
(§2) Experimental part – Cellular samples
(§3) In the present study, GnRH conjugates containing anti-tumour drugs (e.g., daunorubicin, doxorubicin) were investigated in order to evaluate whether the conjugates exert a decrease cardiotoxic effect compared to that of the free drugs. The cardiac myocytes and the vascular endothelium cells are the most frequently detected target cells of antitumor compounds and they are employed in our study. Human umbilical vein endothelial cells (HUVEC; Promocell, Biomedica, Wien, Austria) were cultured in Endothelial Cell Growth Medium with Endothelial Cell Growth Supplement Mix (Promocell, Biomedica, Wien, Austria) and 100 µg/mL penicillin/streptomycin. Primary human cardiac myocytes (HCM; Promocell, Biomedica, Wien, Austria) were cultured in Myocyte Growth Medium (Promocell, Biomedica, Wien, Austria).
(§4) Impedimetric measurements
(§5) The xCELLigence SP system was used for impedimetric measurements. The bottom of the wells of a 96-well E-plate is installed with a golden electrode array that constitutes the adhesion surface. Adhering cells – acting as insulators – change the electric impedance measured on the electrodes. The measured impedance change is in direct correlation with the number of adhering cells and the extent of adhesion. The results of impedance change are given in the form of Cell Index (CI) calculated by the xCELLigence system according to the […]
(§6) where Zt is the measured impedance in a time point, Zb is the background impedance and F is an inbuilt factor (F = 15 at 10 kHz) depending on the frequency of the alternating current. The measurements took place in an incubator holding a 37 °C temperature and 5% carbon-dioxide […]
(§7) The experiments started with a measurement of baseline impedance for 1 hour. After that, the cells (10^4 cells/well) were added to the wells and allowed to adhere to the electrodes. When the adhering cells reached a balanced state in the wells, signified by the impedance curves […]
(§8) free drugs at 10−12 – 10−6 M and the conjugates at 10−8 – 10−6 M final concentrations were […]
(§9) added to the wells. The changes in impedance were measured for at least 72 hours. For each measurement three parallels were measured.
(§10) The evaluation of responses followed the previously described strategy: acute effects of compounds were evaluated as a characteristic morphology of the curves in the 0–2 hours

[2] = system: HT-29 human colon adenocarcinoma cells; conditions: MTT assay; cited from earlier work
Source text: (§11) Table 1 Comparative study of cytotoxic effects and cardiotoxicity elicited by GnRH-based antitumor compounds (1–15) and reference substances (AN-152, Dox, Dau, Mtx). IC50 values show antitumor cytotoxic characteristics of the conjugates in human breast cancer (MCF-7), human colorectal adenocarcinoma (HT-29) and human acute monocytic leukemia (MM6) derived cell lines as representative tumor cells.

[3] = system: MCF-7 human breast adenocarcinoma cells; conditions: MTT assay; cited from earlier work
Source text: as §11

[4] = system: human acute monocytic leukemia (MonoMac6) cells; conditions: cited from earlier work
Source text: as §11

[5] = system: primary human cardiac myocytes (HCM); conditions: for delta slope (DS), short-term / delta slope (DS), long-term: HCM, three parallels; for delta slope (DS), short-term: 0–2 h; for delta slope (DS), long-term: 0–72 h
Source text: as §1, §2, §3, §4, §5, §6, §7, §8, §9, §10

[6] = grade +++/++/+/0, key not given, summary of impedimetric cytotoxicity
[7] = long-term (0–72 h), 10^−8–10^−6 mol/L (free drugs 10^−12–10^−6 mol/L), impedimetry, one-way ANOVA

GnRH-III(Dau=Aoa-K(Dau=Aoa)) [conjugate 12]
delta slope (DS), short-term ([1]; Table S3a, 10^-6 mol/L): -0.003 | delta slope (DS), short-term ([1]; Table S3a, 10^-7 mol/L): 0.010 | delta slope (DS), short-term ([1]; Table S3a, 10^-8 mol/L): 0.009 | delta slope (DS), long-term ([1]; Table S3a, 10^-6 mol/L): -0.001 | delta slope (DS), long-term ([1]; Table S3a, 10^-7 mol/L): -0.001 | delta slope (DS), long-term ([1]; Table S3a, 10^-8 mol/L): -0.001 | Cardiotoxicity, HUVEC [1, 6]: 0 | cytotoxic effect on HUVEC, result in words [1]: completely lost the cytotoxic effect | IC50 [2]: 5.6 ± 2 µM | IC50 [3]: 3 ± 0.4 µM | IC50 [4]: > 1 µM | delta slope (DS), short-term ([5]; Table S3b, 10^-6 mol/L): -0.001 | delta slope (DS), short-term ([5]; Table S3b, 10^-7 mol/L): -0.001 | delta slope (DS), short-term ([5]; Table S3b, 10^-8 mol/L): -0.001 | delta slope (DS), long-term ([5]; Table S3b, 10^-6 mol/L): -0.002 | delta slope (DS), long-term ([5]; Table S3b, 10^-7 mol/L): -0.001 | delta slope (DS), long-term ([5]; Table S3b, 10^-8 mol/L): -0.001 | Cardiotoxicity, HCM [5, 6]: 0 | cytotoxic effect on HCM, result in words [5, 7]: completely lost their cytotoxic effect

{[^4N-MeSer]-GnRH-III(Dau=Aoa-C)}2 (disulfide) [conjugate 10]
delta slope (DS), short-term ([1]; Table S4a, 10^-6 mol/L): 0.017 | delta slope (DS), short-term ([1]; Table S4a, 10^-7 mol/L): 0.011 | delta slope (DS), short-term ([1]; Table S4a, 10^-8 mol/L): 0.008 | delta slope (DS), long-term ([1]; Table S4a, 10^-6 mol/L): 0.004 | delta slope (DS), long-term ([1]; Table S4a, 10^-7 mol/L): 0.002 | delta slope (DS), long-term ([1]; Table S4a, 10^-8 mol/L): 0.001 | Cardiotoxicity, HUVEC [1, 6]: 0 | cytotoxic effect on HUVEC, result in words [1]: completely lost the cytotoxic effect | IC50 [3]: 6.2 ± 1.5 µM | IC50 [4]: 0.783 ± 0.09 µM | delta slope (DS), short-term ([5]; Table S4b, 10^-6 mol/L): 0.001 | delta slope (DS), short-term ([5]; Table S4b, 10^-7 mol/L): -0.001 | delta slope (DS), short-term ([5]; Table S4b, 10^-8 mol/L): -0.002 | delta slope (DS), long-term ([5]; Table S4b, 10^-6 mol/L): −0.005 | delta slope (DS), long-term ([5]; Table S4b, 10^-7 mol/L): −0.003 | delta slope (DS), long-term ([5]; Table S4b, 10^-8 mol/L): -0.001

[GnRH-III(Dau=Aoa-C)]2 [conjugate 9]
delta slope (DS), short-term ([1]; Table S4a, 10^-6 mol/L): 0.014 | delta slope (DS), short-term ([1]; Table S4a, 10^-7 mol/L): 0.008 | delta slope (DS), short-term ([1]; Table S4a, 10^-8 mol/L): 0.001 | delta slope (DS), long-term ([1]; Table S4a, 10^-6 mol/L): 0.001 | delta slope (DS), long-term ([1]; Table S4a, 10^-7 mol/L): -0.001 | delta slope (DS), long-term ([1]; Table S4a, 10^-8 mol/L): -0.002 | Cardiotoxicity, HUVEC [1, 6]: 0 | cytotoxic effect on HUVEC, result in words [1]: completely lost the cytotoxic effect | IC50 [3]: 4.1 ± 0.8 µM | IC50 [4]: 1.69 ± 0.41 µM | delta slope (DS), short-term ([5]; Table S4b, 10^-6 mol/L): 0.003 | delta slope (DS), short-term ([5]; Table S4b, 10^-7 mol/L): 0.002 | delta slope (DS), short-term ([5]; Table S4b, 10^-8 mol/L): -0.001 | delta slope (DS), long-term ([5]; Table S4b, 10^-6 mol/L): -0.001 | delta slope (DS), long-term ([5]; Table S4b, 10^-7 mol/L): -0.001 | delta slope (DS), long-term ([5]; Table S4b, 10^-8 mol/L): -0.002 | Cardiotoxicity, HCM [5, 6]: 0 | cytotoxic effect on HCM, result in words [5, 7]: completely lost their cytotoxic effect

CN(Cc1cnc2nc(N)nc(N)c2n1)c1ccc(C(=O)N[C@@H](CCC(=O)O)C(=O)O)cc1 [methotrexate]
Cardiotoxicity, HUVEC [1]: + | delta slope (DS), short-term ([1]; Table S1a, 10^-6 mol/L): 0.001 | delta slope (DS), short-term ([1]; Table S1a, 10^-7 mol/L): 0.002 | delta slope (DS), short-term ([1]; Table S1a, 10^-8 mol/L): 0.013 | delta slope (DS), short-term ([1]; Table S1a, 10^-9 mol/L): 0.019 | delta slope (DS), short-term ([1]; Table S1a, 10^-10 mol/L): 0.012 | delta slope (DS), short-term ([1]; Table S1a, 10^-11 mol/L): 0.013 | delta slope (DS), short-term ([1]; Table S1a, 10^-12 mol/L): 0.015 | delta slope (DS), short-term ([1]; Table S5a, 10^-6 mol/L): 0.005 | delta slope (DS), short-term ([1]; Table S5a, 10^-7 mol/L): 0.003 | delta slope (DS), short-term ([1]; Table S5a, 10^-8 mol/L): -0.003 | IC50 [2]: 1.4 ± 0.6 µM | IC50 [4]: 0.008 ± 0.0002 µM | Cardiotoxicity, HCM [5]: 0 | cytotoxic effect on HCM, result in words [5]: no significant effect was measured | delta slope (DS), short-term ([5]; Table S1b, 10^-6 mol/L): 0.005 | delta slope (DS), short-term ([5]; Table S1b, 10^-7 mol/L): 0.001 | delta slope (DS), short-term ([5]; Table S1b, 10^-8 mol/L): 0.001 | delta slope (DS), short-term ([5]; Table S1b, 10^-9 mol/L): -0.001 | delta slope (DS), short-term ([5]; Table S1b, 10^-10 mol/L): 0.001 | delta slope (DS), short-term ([5]; Table S1b, 10^-11 mol/L): 0.001 | delta slope (DS), short-term ([5]; Table S1b, 10^-12 mol/L): 0.002 | delta slope (DS), short-term ([5]; Table S5b, 10^-6 mol/L): 0.001

{GnRH-III(Dau=Aoa-YRRL-C)}2 [conjugate 11]
delta slope (DS), short-term ([1]; Table S4a, 10^-6 mol/L): 0.014 | delta slope (DS), short-term ([1]; Table S4a, 10^-7 mol/L): 0.002 | delta slope (DS), short-term ([1]; Table S4a, 10^-8 mol/L): 0.022 | delta slope (DS), long-term ([1]; Table S4a, 10^-6 mol/L): −0.017 | delta slope (DS), long-term ([1]; Table S4a, 10^-7 mol/L): −0.005 | delta slope (DS), long-term ([1]; Table S4a, 10^-8 mol/L): 0.001 | IC50 [4]: 0.42 ± 0.05 µM | delta slope (DS), short-term ([5]; Table S4b, 10^-6 mol/L): -0.004 | delta slope (DS), short-term ([5]; Table S4b, 10^-7 mol/L): -0.001 | delta slope (DS), short-term ([5]; Table S4b, 10^-8 mol/L): -0.001 | delta slope (DS), long-term ([5]; Table S4b, 10^-6 mol/L): −0.004 | delta slope (DS), long-term ([5]; Table S4b, 10^-7 mol/L): -0.002 | delta slope (DS), long-term ([5]; Table S4b, 10^-8 mol/L): -0.001
